In patent publication US7074798B2, “Xanthine derivative and DPPIV inhibitor” (Eisai Co., Ltd, priority 2002, dated 2006):
Where a name gives a salt, the structure may show the parent alone.

What follows are compounds tested on male C57BL/6N mouse (assay: Effect on glucose tolerance of normal mouse (oral glucose loading)). Conditions: 2 h, 0.3 mg/kg oral, 30 min before glucose 2 g/kg, AUC0-120, 0.5% MC = 100%, NVP DPP728 10 mg/kg = 0%, lower = better, read-out: Improvement degree of glucose tolerance.
Type: in vivo
Method: Effect on Glucose Tolerance of Normal Mouse
male C57BL/6N mouse (purchased from CHARLES RIVER JAPAN, INC.)
A suspension of the test compound and NVP DPP728 or 0.5% MC solution (solvent control group) were orally administered at a dose of 10 mL/kg, and after 30 minutes, glucose solution was orally administered at a dose of 10 mL/kg. Glucose was orally administered at a dose of 2 g/kg.
Immediately before the administration of the test substance and NVP DPP728, immediately before the administration of the glucose solution and at 30 minutes, 60 minutes, and 120 minutes after the administration, a tail vein of the mouse was injured to slightly bleed by a razor under no anesthesia. 10 μl of blood was collected and was immediately mixed with 0.6M perchloric acid (140 μl). Glucose in the supernatant obtained by centrifugation (1500 g, 10 minutes, 4° C., refrigerated centrifuge GS-6KR, Beckman Instruments, Inc.) was measured using Glucose CII-Test Wako (Wako Pure Chemical Industries, Ltd.).
Area under the curve of blood glucose level-time (AUC0-120; Area Under the Curve) from the time of administration of glucose to 120 minutes after administration was calculated for respective administration groups, i.e., 0.5% MC solution, NVP DPP728, and the test compounds. Taking the AUC0-120 of the 0.5% MC solution administration group as 100% and the AUC0-120 of NVP DPP728 (10 mg/kg) administration group as 0%, the improvement degree of the glucose tolerance of a test compound was calculated using the following formula: Improvement degree of the glucose tolerance (%)=(AUC0-120 of the test compound−AUC0-120 of the NVP DPP728 (10 mg/kg) administration group)/(AUC0-120 of the 0.5% MC solution administration group−AUC0-120 of the NVP DPP728 (10 mg/kg) administration group)×100. • The lower the % value, the greater the improvement degree of the glucose tolerance will be.

| Structure (SMILES) | response vs control in vivo at 0.3 mg/kg |
| --- | --- |
| CC#CCn1c(N2CCNCC2)nc2c1c(=O)n(CC(=O)c1ccccc1)c(=O)n2C [Example 30, 7-(2-Butynyl)-3-methyl-1-(2-oxo-2-phenylethyl)-8-(piperazin-1-yl)-3,7-dihydropurine-2,6-dione trifluoroacetate] | 49.4% |

Same assay, conditions: 2 h, 1 mg/kg oral, 30 min before glucose 2 g/kg, AUC0-120, 0.5% MC = 100%, NVP DPP728 10 mg/kg = 0%, lower = better, read-out: Improvement degree of glucose tolerance

| Structure (SMILES) | response vs control in vivo at 1 mg/kg |
| --- | --- |
| CC#CCn1c(N2CCNCC2)nc2c1c(=O)[nH]c(=O)n2C [Example 14, 7-(2-Butynyl)-3-methyl-8-(piperazin-1-yl)-3,7-dihydropurine-2,6-dione] | 41.9% |
| CC#CCn1c(N2CCNCC2)nc2c1c(=O)n(CC(=O)c1ccccc1)c(=O)n2C [Example 30, 7-(2-Butynyl)-3-methyl-1-(2-oxo-2-phenylethyl)-8-(piperazin-1-yl)-3,7-dihydropurine-2,6-dione trifluoroacetate] | -14.3% |
| CC#CCn1c(N2CCNCC2)nc2c1c(=O)n(Cc1ccccc1C#N)c(=O)n2C [Example 39, 2-[7-(2-Butynyl)-3-methyl-2,6-dioxo-8-(piperazin-1-yl)-2,3,6,7-tetrahydropurin-1-ylmethyl]-benzonitrile trifluoroacetate] | 45.5% |
| C=Cc1ccccc1-n1c(N2CCNCC2)nc2c1c(=O)[nH]c(=O)n2C [Example 174, 7-(2-Vinylphenyl)-3-methyl-8-(piperazin-1-yl)-3,7-dihydropurine-2,6-dione] | 24.3% |

Same assay, conditions: 2 h, 3 mg/kg oral, 30 min before glucose 2 g/kg, AUC0-120, 0.5% MC = 100%, NVP DPP728 10 mg/kg = 0%, lower = better, read-out: Improvement degree of glucose tolerance

| Structure (SMILES) | response vs control in vivo at 3 mg/kg |
| --- | --- |
| CC#CCn1c(N2CCNCC2)nc2c1c(=O)n(C)c(=O)n2C [Example 10, 7-(2-Butynyl)-1,3-dimethyl-8-(piperazin-1-yl)-3,7-dihydropurine-2,6-dione] | 0.5% |
| CC#CCn1c(N2CCNCC2)nc2c1c(=O)n(CC(=O)OC)c(=O)n2C [Example 15, [7-(2-Butynyl)-3-methyl-2,6-dioxo-8-(piperazin-1-yl)-2,3,6,7-tetrahydropurin-1-yl]acetic acid methyl ester trifluoroacetate] | -17.2% |
| CC#CCn1c(N2CCNCC2)nc2c1c(=O)n(CCOCC)c(=O)n2C [Example 18, 7-(2-Butynyl)-1-(2-ethoxyethyl)-3-methyl-8-(piperazin-1-yl)-3,7-dihydropurine-2,6-dione trifluoroacetate] | 9.5% |
| C#CCn1c(=O)c2c(nc(N3CCNCC3)n2CC#CC)n(C)c1=O [Example 19, 7-(2-Butynyl)-3-methyl-8-(piperazin-1-yl)-1-(2-propynyl)-3,7-dihydropurine-2,6-dione trifluoroacetate] | -13.1% |
| CC#CCn1c(=O)c2c(nc(N3CCNCC3)n2CC#CC)n(C)c1=O [Example 20, 1,7-Bis(2-butynyl)-3-methyl-8-(piperazin-1-yl)-3,7-dihydropurine-2,6-dione trifluoroacetate] | 5% |
| CC#CCn1c(N2CCNCC2)nc2c1c(=O)n(CC#N)c(=O)n2C [Example 21, [7-(2-Butynyl)-3-methyl-2,6-dioxo-8-(piperazin-1-yl)-2,3,6,7-tetrahydropurin-1-yl]acetonitrile trifluoroacetate] | 4.8% |
| COc1ccccc1-n1c(N2CCNCC2)nc2c1c(=O)n(C)c(=O)n2C [Example 123, 7-(2-Methoxyphenyl)-1,3-dimethyl-8-(piperazin-1-yl)-3,7-dihydropurine-2,6-dione trifluoroacetate] | 17.9% |
| C=Cc1ccccc1-n1c(N2CCNCC2)nc2c1c(=O)n(C)c(=O)n2C [Example 147, 7-(2-Vinylphenyl)-1,3-dimethyl-8-(piperazin-1-yl)-3,7-dihydropurine-2,6-dione trifluoroacetate] | 13% |
| Cn1c(=O)[nH]c(=O)c2c1nc(N1CCNCC1)n2-c1ccccc1Cl [Example 156, 7-(2-Chlorophenyl)-3-methyl-8-(piperazin-1-yl)-3,7-dihydropurine-2,6-dione trifluoroacetate] | 0.9% |
| COc1ccccc1-n1c(N2CCNCC2)nc2c1c(=O)n(CC#N)c(=O)n2C [Example 166, [7-(2-Methoxyphenyl)-3-methyl-2,6-dioxo-8-(piperazin-1-yl)-2,3,6,7-tetrahydropurin-1-yl]acetonitrile trifluoroacetate] | 16.1% |
| C=Cc1ccccc1-n1c(N2CCNCC2)nc2c1c(=O)[nH]c(=O)n2C [Example 174, 7-(2-Vinylphenyl)-3-methyl-8-(piperazin-1-yl)-3,7-dihydropurine-2,6-dione] | -9.1% |
| NC(=O)Cn1c(=O)[nH]c(=O)c2c1nc(N1CCNCC1)n2-c1ccccc1Cl [Example 194, 2-[7-(2-Chlorophenyl)-2,6-dioxo-8-(piperazin-1-yl)-1,2,6,7-tetrahydropurin-3-yl]-acetamide trifluoroacetate] | 9.9% |
| CC#CCn1c(N2CCNCC2)nc2c1c(=O)n(C)c(=O)n2CC [Example 216, 7-(2-Butynyl)-3-ethyl-1-methyl-8-(piperazin-1-yl)-3,7-dihydropurine-2,6-dione trifluoroacetate] | -5% |
| CC#CCn1c(N2CCNCC2)nc2c1c(=O)n(C)c(=O)n2Cc1ccccc1 [Example 218, 7-(2-Butynyl)-3-benzyl-1-methyl-8-(piperazin-1-yl)-3,7-dihydropurine-2,6-dione trifluoroacetate] | 16.8% |
| CC#CCn1c(N2CCNCC2)nc2c1c(=O)n(C)c(=O)n2CC(=O)OC [Example 219, [7-(2-Butynyl)-1-methyl-2,6-dioxo-8-(piperazin-1-yl)-1,2,6,7-tetrahydropurin-3-yl]acetic acid methyl ester trifluoroacetate] | -1.4% |
| CC#CCn1c(N2CCNCC2)nc2c1c(=O)n(C)c(=O)n2CC1CCCO1 (stereo not shown) [Example 226, 7-(2-Butynyl)-3-(2-tetrahydrofuranyl)methyl-1-methyl-8-(piperazin-1-yl)-3,7-dihydropurine-2,6-dione trifluoroacetate] | -5.2% |
| CC#CCn1c(N2CCNCC2)nc2c1c(=O)n(C)c(=O)n2C(C(=O)OC)c1ccccc1 (stereo not shown) [Example 240, [7-(2-Butynyl)-1-methyl-2,6-dioxo-8-(piperazin-1-yl)-1,2,6,7-tetrahydropurin-3-yl]phenyl acetic acid methyl ester trifluoroacetate] | -2.8% |
| CC#CCn1c(N2CCNCC2)nc2c1c(=O)n(C)c(=O)n2CCC [Example 243, 7-(2-Butynyl)-3-propyl-1-methyl-8-(piperazin-1-yl)-3,7-dihydropurine-2,6-dione trifluoroacetate] | 8.4% |
| CC#CCn1c(N2CCNCC2)nc2c1c(=O)n(C)c(=O)n2CC(=O)c1ccccc1 [Example 256, 7-(2-Butynyl)-3-(2-oxo-2-phenethyl)-1-methyl-8-(piperazin-1-yl)-3,7-dihydropurine-2,6-dione trifluoroacetate] | 2.4% |
| CC#CCn1c(N2CCNCC2)nc2c1c(=O)n(C)c(=O)n2C(C)C(=O)OCC (stereo not shown) [Example 257, 2-[7-(2-Butynyl)-1-methyl-2,6-dioxo-8-(piperazin-1-yl)-1,2,6,7-tetrahydropurin-3-yl]propionic acid ethyl ester trifluoroacetate] | 10.5% |
| CC#CCn1c(N2CCNCC2)nc2c1c(=O)n(C)c(=O)n2C1CCOC1=O (stereo not shown) [Example 263, 7-(2-Butynyl)-3-(2-oxo-tetrahydrofuran-3-yl)-1-methyl-8-(piperazin-1-yl)-3,7-dihydropurine-2,6-dione trifluoroacetate] | 16.4% |
| CC#CCn1c(N2CCNCC2)nc2c1c(=O)n(C)c(=O)n2CCOCC [Example 266, 7-(2-Butynyl)-3-(2-ethoxyethyl)-1-methyl-8-(piperazin-1-yl)-3,7-dihydropurine-2,6-dione trifluoroacetate] | -2.3% |
| CC#CCn1c(N2CCNCC2)nc2c1c(=O)n(C)c(=O)n2C(C)C [Example 270, 7-(2-Butynyl)-3-isopropyl-1-methyl-8-(piperazin-1-yl)-3,7-dihydropurine-2,6-dione trifluoroacetate] | 7.3% |
| CC#CCn1c(N2CCNCC2)nc2c1c(=O)n(C)c(=O)n2CC(=O)C(C)(C)C [Example 274, 7-(2-Butynyl)-3-(3,3-dimethyl-2-oxobutyl)-1-methyl-8-(piperazin-1-yl)-3,7-dihydropurine-2,6-dione trifluoroacetate] | 1.9% |
| CC#CCn1c(N2CCNCC2)nc2c1c(=O)n(C)c(=O)n2C1CCNC1=O (stereo not shown) [Example 284, 7-(2-Butynyl)-1-methyl-3-(2-oxopyrrolidin-3-yl)-8-(piperazin-1-yl)-3,7-dihydropurine-2,6-dione hydrochloride] | 11.3% |
| CC#CCn1c(N2CCNCC2)nc2c1c(=O)[nH]c(=O)n2CCOCC [Example 321, 7-(2-Butynyl)-3-(2-ethoxyethyl)-8-(piperazin-1-yl)-3,7-dihydropurine-2,6-dione trifluoroacetate] | 16.9% |
